Papp data for 55 molecules are collected here from PubChem BioAssay AID1508612.

In general, Papp refers to the rate of passage across a membrane or cell layer, normalised by area and donor concentration. A higher Papp goes with fast passage.

This series in a line: passive permeability, PAMPA, ADME assay (AID 1508612). The following applies: pH 7.4, 30.0 min, 50.0 µM. On the technique in general: In PAMPA a lipid-coated filter parts donor from acceptor wells.

Structures are written as SMILES.

Turning to `COC(=O)C1=C(C)NC(C)=C(C(=O)OCCCN2CCC(c3ccccc3)(c3ccccc3)CC2)C1c1cccc([N+](=O)[O-])c1` (stereo not given), the Papp is 34.1 ×10⁻⁶ cm/s.

`O=C(NC1CCCc2c1cnn2-c1ccc(F)cc1F)c1ccc(C2(C(F)(F)F)N=N2)cc1` (stereo not given): the Papp is < 1 ×10⁻⁶ cm/s.

On to `COc1ccccc1N1CCN(CCN(C(=O)c2ccc(F)cc2)c2ccccn2)CC1`, for which the apparent permeability (Papp) is > 1000 ×10⁻⁶ cm/s.

`Cn1nnnc1Sc1ncnc2scc(-c3cccc(S(C)(=O)=O)c3)c12` had a Papp of 93.9 ×10⁻⁶ cm/s.

For `C[C@H]1[C@@H](CCC(=O)Nc2ccc(F)cc2)O[C@@H]2O[C@]3(C)CC[C@@H]4[C@H](C)CC[C@@H]1[C@@]24OO3`, the Papp was > 1000 ×10⁻⁶ cm/s.

For the molecule `Fc1cnc(-c2ccccc2C(F)F)nc1NCc1ccc(-c2ccn[nH]2)cc1`, the Papp was > 1000 ×10⁻⁶ cm/s.

For the molecule `CC(=O)N1CCc2c(sc3c2c(=O)n(-c2ccccc2)c(=O)n3CC(=O)c2ccccc2)C1`, the Papp amounted to 714 ×10⁻⁶ cm/s.

`Cc1ncc2c(c1CNC(=O)Cn1cnc3ccccc3c1=O)CCNC2`: the apparent permeability (Papp) worked out at 59.6 ×10⁻⁶ cm/s.

As to `CC[C@H](C)[C@@H]([C@@H](CC(=O)N1CCC[C@H]1[C@H](OC)[C@@H](C)C(=O)N[C@@H](Cc1ccccc1)c1nccs1)OC)N(C)C(=O)[C@@H](NC(=O)[C@H](C(C)C)N(C)C)C(C)C`, the apparent permeability coefficient (Papp) worked out at 341 ×10⁻⁶ cm/s.

Turning to `CC(=O)c1c(C)[nH]c(C(=O)Nc2ccc(C)c(S(=O)(=O)Nc3ccc(Br)cc3)c2)c1C`, the Papp stood at 108 ×10⁻⁶ cm/s.

The molecule `O=C(O)Cc1ccc2oc(-c3ccc(NC(=O)/C=C/c4ccc(Br)cc4)c(F)c3)nc2c1` had a Papp of 6.63 ×10⁻⁶ cm/s.

On to `CCOc1ccc(NC(=O)c2cccc(-n3cccc3)c2)cc1S(=O)(=O)N1CCOCC1`, for which the Papp turned out to be 80.4 ×10⁻⁶ cm/s.

Turning to `Cn1nnnc1Sc1ncnc2scc(Br)c12`, the apparent permeability coefficient (Papp) was determined as 177 ×10⁻⁶ cm/s.

Take `Clc1ccccc1-c1nc(NCc2ccc(-c3cccnc3)cc2)c2ccccc2n1`: the Papp was 944 ×10⁻⁶ cm/s.

For the molecule `COc1cccc(-c2nc(-c3c(C)noc3C)cc3[nH]c(C)cc23)c1OC`, the Papp was > 1000 ×10⁻⁶ cm/s.

`CC(=O)N1CCC(NC(=O)c2nc(-c3ccccc3)cc3[nH]ccc23)CC1` gave an apparent permeability (Papp) of 288 ×10⁻⁶ cm/s.

For `Cc1ccc(N2CCC(CNc3nc(-c4ccccc4C(C)C)ncc3C)CC2)cn1`, the Papp is > 1000 ×10⁻⁶ cm/s.

Regarding `Cc1cccc2nc(-c3cccnc3)c(Nc3ccc(C(C)C)cc3)n12`, the Papp was > 1000 ×10⁻⁶ cm/s.

Take `Cc1cc(C)nc(N2CCCC(C(=O)NCCc3ccc(F)cc3)C2)n1` (stereo not given): the apparent permeability coefficient (Papp) turned out to be 62.2 ×10⁻⁶ cm/s.

With `[2H]C([2H])(Nc1nc(-c2ccccc2C([2H])(C([2H])([2H])[2H])C([2H])([2H])[2H])ncc1C)c1ccc(-n2ccnn2)cc1`, the Papp is > 1000 ×10⁻⁶ cm/s.

As for `CC1=Nc2cc(C(=O)NC3CCCC3)ccc2Sc2ccc(C)cc21`, the apparent permeability (Papp) is > 1000 ×10⁻⁶ cm/s.

For the molecule `O=C(NC1CCCc2c1cnn2-c1ccc(O)cc1)c1ccccn1` (stereo not given), the apparent permeability (Papp) stood at 587 ×10⁻⁶ cm/s.

`CC(C)(C)c1cc(NC(=O)Nc2ccc(-c3cn4c(n3)sc3cc(OCCN5CCOCC5)ccc34)cc2)no1`: the Papp is < 1 ×10⁻⁶ cm/s.

Regarding `CCOc1ccc(NC(=O)CSC2=Nc3ccccc3C3=NC(CC(=O)NCc4cccs4)C(=O)N23)cc1` (stereo not given), the apparent permeability coefficient (Papp) was found to be 25 ×10⁻⁶ cm/s.

Molecule `O=C(Oc1ccc[nH]c1=O)c1cc([N+](=O)[O-])cc([N+](=O)[O-])c1` yielded a Papp of 16.2 ×10⁻⁶ cm/s.

Molecule `Cc1noc(C)c1-c1cc(-c2ccc3c(c2)C(=O)NC3)cn2cncc12` gave a Papp of 143 ×10⁻⁶ cm/s.

`CC1=C[C@@H](CN2C(=O)C(C)=C(C)C2=O)[C@H](C(C)C)C[C@H]1Cc1nc2c(C)cccc2[nH]1` gave a Papp of 585 ×10⁻⁶ cm/s.

For the molecule `CC(=O)NCc1ccc(-c2csc(Nc3cccc(C)c3)n2)o1`, the Papp was > 1000 ×10⁻⁶ cm/s.

Molecule `COc1ccc2[nH]c(=O)c(-c3noc(-c4ccc(F)cc4)n3)cc2c1` yielded an apparent permeability coefficient (Papp) of 63 ×10⁻⁶ cm/s.

In the case of `CCCCC(C)/C=C(C)/C=C(\C)C(=O)NC1=CC(O)(/C=C/C=C/C=C/C(=O)NC2=C(O)CCC2=O)C2OC2C1=O` (stereo not given), the Papp stood at 955 ×10⁻⁶ cm/s.

For the molecule `Cc1cc(-c2ccc(C)c(S(=O)(=O)NCC3CCN(Cc4ccc(F)cc4)CC3)c2)on1`, the apparent permeability (Papp) was > 1000 ×10⁻⁶ cm/s.

Regarding `Fc1cccc(F)c1Nc1nc(-c2ccncc2)nc2ccccc12`, the Papp was > 1000 ×10⁻⁶ cm/s.

Turning to `Cc1noc(C)c1-c1ccc2ncnc(N3CCC(C(=O)O)CC3)c2c1`, the apparent permeability coefficient (Papp) was found to be 1.5 ×10⁻⁶ cm/s.

`Cc1ccc(C2=NN=C(NC(=O)CSc3nncn3C)SC2)cc1` came in with an apparent permeability coefficient (Papp) of 147 ×10⁻⁶ cm/s.

Turning to `O=C(NC1CC1)c1ccc(CSCc2ccccc2Cl)o1`, the apparent permeability (Papp) was found to be 758 ×10⁻⁶ cm/s.

In turn, `CCOc1ccc(NC(=O)CC2C(=O)N(c3ccc(F)cc3)C(=O)N2CCc2sccc2C)cc1` (stereo not given) showed a Papp of 927 ×10⁻⁶ cm/s.

With `COc1ccc2[nH]c(S(=O)Cc3ncc(C)c(OC)c3C)nc2n1` (stereo not given), the Papp came out at 183 ×10⁻⁶ cm/s.

On to `CC1=C[C@@H](CNC(C)C)[C@H](C(C)C)C[C@H]1Cc1nnc(-c2ccncc2)o1`, for which the Papp turned out to be 649 ×10⁻⁶ cm/s.

In the case of `CC(=O)NCc1ccc(-c2csc(Nc3cc(C)cc(C)c3)n2)o1`, the apparent permeability (Papp) was > 1000 ×10⁻⁶ cm/s.

Turning to `CCOC(=O)C1CCN(C(=O)Nc2ccc3c(c2)nc(C)n3C)CC1`, the apparent permeability (Papp) stood at 38.4 ×10⁻⁶ cm/s.

With `O=C(c1ccc2c(c1)ncn2-c1ccc(Cl)cc1)N1CCCCC1`, the Papp is > 1000 ×10⁻⁶ cm/s.

For `CC(=O)c1ccc(-c2csc(N3CCC(C(N)=O)CC3)n2)cc1`, the apparent permeability coefficient (Papp) came to 300 ×10⁻⁶ cm/s.

Take `CCN(CC)CCOc1ccc2c(=O)c3ccc(Cl)cc3n(CCN(CC)CC)c2c1`: the apparent permeability coefficient (Papp) was > 1000 ×10⁻⁶ cm/s.

In turn, `O=C1NC(=O)C(c2cnc3ccccn23)=C1c1cn2c3c(cccc13)CN(C(=O)N1CCOCC1)CC2` showed a Papp of 82.9 ×10⁻⁶ cm/s.

Regarding `COc1ccc(S(=O)(=O)N(C(=O)C(C)C)c2ccc3oc(=O)sc3c2)cc1`, the Papp was 658 ×10⁻⁶ cm/s.

The molecule `COc1ccc(C(=O)Nc2nc(-c3ccccc3)cs2)cc1NS(=O)(=O)c1ccc(C)cc1` gave a Papp of 14.9 ×10⁻⁶ cm/s.

On to `O=C(c1cnc(N2CCCCC2)c2ccccc12)N1CCN(c2ccccn2)CC1`, for which the apparent permeability coefficient (Papp) was > 1000 ×10⁻⁶ cm/s.

In turn, `O=C1CCCCc2cc(O)c(O)cc21` gave a Papp of 20.9 ×10⁻⁶ cm/s.

Molecule `Cc1ccc(S(=O)(=O)Nc2cnccc2C(=O)Nc2nc3ccccc3s2)cc1` registered a Papp of 475 ×10⁻⁶ cm/s.

Take `CCN(CC)C(=O)c1sc2c(c1C)c(=O)n(Cc1ccccc1)c(=O)n2CC(=O)Nc1ccc(OC)cc1`: the apparent permeability coefficient (Papp) was > 1000 ×10⁻⁶ cm/s.

For `Cn1cc2c3c(cccc31)CN(C(=O)c1ccc(F)c(Cl)c1)CC2`, the Papp was > 1000 ×10⁻⁶ cm/s.

Turning to `Cc1cc(C)nc(NC(=S)N2CCN(c3nccc(C(F)(F)F)n3)CC2)c1`, the apparent permeability (Papp) is > 1000 ×10⁻⁶ cm/s.

Regarding `CCOc1ccc(NC(=O)c2ccc(F)c(S(=O)(=O)N(CC)Cc3ccccc3)c2)cc1`, the Papp is < 1 ×10⁻⁶ cm/s.

As to `Cc1ccc(S(=O)(=O)Nc2ccccc2C(=O)Nc2ccc(-c3ccccc3)nn2)cc1`, the Papp is > 1000 ×10⁻⁶ cm/s.

Molecule `CCC(=O)N1CCN(c2ccc(-n3c(=O)ccc4cnc5ccc(-c6cnc7ccccc7c6)cc5c43)cc2C(F)(F)F)CC1` came in with a Papp of 178 ×10⁻⁶ cm/s.
